Reference: PubChem BioAssay (NCI)
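Compound exposure: 48 hours, 5 concentrations, 96-well plates. Abbreviation: GI50, concentration required for 50% inhibition of growth. TGI is the concentration that stops growth completely.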

Assays:
Assay in all cases: growth of human tumour cells (NCI), 48 h
786-0 renal = tested on: 786-0 renal
A498 renal = tested on: A498 renal
A549 NSCLC = tested on: A549 NSCLC
ACHN renal = tested on: ACHN renal
BT-549 breast = tested on: BT-549 breast
CAKI-1 renal = tested on: CAKI-1 renal
CCRF-CEM leukemia = tested on: CCRF-CEM leukemia
COLO 205 colon = tested on: COLO 205 colon
DU-145 prostate = tested on: DU-145 prostate
EKVX NSCLC = tested on: EKVX NSCLC
HCC-2998 colon = tested on: HCC-2998 colon
HCT-116 colon = tested on: HCT-116 colon
HCT-15 colon = tested on: HCT-15 colon
HL-60(TB) leukemia = tested on: HL-60(TB) leukemia
HOP-62 NSCLC = tested on: HOP-62 NSCLC
HOP-92 NSCLC = tested on: HOP-92 NSCLC
HS 578T breast = tested on: HS 578T breast
HT29 colon = tested on: HT29 colon
IGROV1 ovarian = tested on: IGROV1 ovarian
K-562 leukemia = tested on: K-562 leukemia
KM12 colon = tested on: KM12 colon
LOX IMVI melanoma = tested on: LOX IMVI melanoma
M14 melanoma = tested on: M14 melanoma
MALME-3M melanoma = tested on: MALME-3M melanoma
MCF7 breast = tested on: MCF7 breast
MDA-MB-231 breast = tested on: MDA-MB-231 breast
MDA-MB-435 = tested on: MDA-MB-435
MOLT-4 leukemia = tested on: MOLT-4 leukemia
NCI-H226 lung = tested on: NCI-H226 lung
NCI-H23 lung = tested on: NCI-H23 lung
NCI-H460 lung = tested on: NCI-H460 lung
NCI-H522 lung = tested on: NCI-H522 lung
NCI/ADR-RES ovarian = tested on: NCI/ADR-RES ovarian
OVCAR-3 ovarian = tested on: OVCAR-3 ovarian
OVCAR-4 ovarian = tested on: OVCAR-4 ovarian
OVCAR-5 ovarian = tested on: OVCAR-5 ovarian
OVCAR-8 ovarian = tested on: OVCAR-8 ovarian
PC-3 prostate = tested on: PC-3 prostate
RPMI-8226 leukemia = tested on: RPMI-8226 leukemia
RXF 393 renal = tested on: RXF 393 renal
SF-268 CNS = tested on: SF-268 CNS
SF-295 CNS = tested on: SF-295 CNS
SK-MEL-2 melanoma = tested on: SK-MEL-2 melanoma
SK-MEL-28 melanoma = tested on: SK-MEL-28 melanoma
SK-MEL-5 melanoma = tested on: SK-MEL-5 melanoma
SK-OV-3 ovarian = tested on: SK-OV-3 ovarian
SN12C renal = tested on: SN12C renal
SNB-75 CNS = tested on: SNB-75 CNS
SR leukemia = tested on: SR leukemia
SW-620 colon = tested on: SW-620 colon
T-47D breast = tested on: T-47D breast
TK-10 renal = tested on: TK-10 renal
U251 CNS = tested on: U251 CNS
UACC-257 melanoma = tested on: UACC-257 melanoma
UACC-62 melanoma = tested on: UACC-62 melanoma
UO-31 renal = tested on: UO-31 renal

COc1cccc(-c2nn(-c3ccccc3)cc2-c2ccnc(NCCCNS(=O)(=O)c3cccc(F)c3)c2)c1
GI50 (786-0 renal): 4.01 µM | TGI (786-0 renal): > 100 µM | GI50 (A498 renal): 3.52 µM | TGI (A498 renal): > 100 µM | GI50 (A549 NSCLC): 6.34 µM | TGI (A549 NSCLC): > 100 µM | GI50 (ACHN renal): 3.56 µM | TGI (ACHN renal): > 100 µM | GI50 (BT-549 breast): 2.76 µM | TGI (BT-549 breast): > 100 µM | GI50 (CAKI-1 renal): 6.16 µM | TGI (CAKI-1 renal): > 100 µM | GI50 (CCRF-CEM leukemia): 4.62 µM | TGI (CCRF-CEM leukemia): > 100 µM | GI50 (COLO 205 colon): 2.41 µM | TGI (COLO 205 colon): 9.39 µM | GI50 (DU-145 prostate): 6.33 µM | TGI (DU-145 prostate): > 100 µM | GI50 (EKVX NSCLC): 2.79 µM | TGI (EKVX NSCLC): > 100 µM | GI50 (HCC-2998 colon): 3.92 µM | TGI (HCC-2998 colon): > 100 µM | GI50 (HCT-116 colon): 3.67 µM | TGI (HCT-116 colon): > 100 µM | GI50 (HCT-15 colon): 2.89 µM | TGI (HCT-15 colon): > 100 µM | GI50 (HL-60(TB) leukemia): 3.52 µM | TGI (HL-60(TB) leukemia): 24.7 µM | GI50 (HOP-62 NSCLC): 10.4 µM | TGI (HOP-62 NSCLC): > 100 µM | GI50 (HOP-92 NSCLC): 2.42 µM | TGI (HOP-92 NSCLC): 9.63 µM | GI50 (HS 578T breast): 6.52 µM | TGI (HS 578T breast): > 100 µM | GI50 (HT29 colon): 2.87 µM | TGI (HT29 colon): 18.8 µM | GI50 (IGROV1 ovarian): 4.96 µM | TGI (IGROV1 ovarian): > 100 µM | GI50 (K-562 leukemia): 3.31 µM | TGI (K-562 leukemia): > 100 µM | GI50 (KM12 colon): 3.38 µM | TGI (KM12 colon): > 100 µM | GI50 (LOX IMVI melanoma): 4.05 µM | TGI (LOX IMVI melanoma): > 100 µM | GI50 (M14 melanoma): 3.3 µM | TGI (M14 melanoma): > 100 µM | GI50 (MALME-3M melanoma): 5.16 µM | TGI (MALME-3M melanoma): > 100 µM | GI50 (MCF7 breast): 3.21 µM | TGI (MCF7 breast): > 100 µM | GI50 (MDA-MB-231 breast): 3.43 µM | TGI (MDA-MB-231 breast): > 100 µM | GI50 (MDA-MB-435): 3.68 µM | TGI (MDA-MB-435): 58.8 µM | GI50 (MOLT-4 leukemia): 2.64 µM | TGI (MOLT-4 leukemia): 8 µM | GI50 (NCI-H226 lung): 6.75 µM | TGI (NCI-H226 lung): > 100 µM | GI50 (NCI-H23 lung): 4.47 µM | TGI (NCI-H23 lung): > 100 µM | GI50 (NCI-H460 lung): 4.93 µM | TGI (NCI-H460 lung): > 100 µM | GI50 (NCI-H522 lung): 2.05 µM | TGI (NCI-H522 lung): 21.2 µM | GI50 (NCI/ADR-RES ovarian): 3.05 µM | TGI (NCI/ADR-RES ovarian): > 100 µM | GI50 (OVCAR-3 ovarian): 4.88 µM | TGI (OVCAR-3 ovarian): > 100 µM | GI50 (OVCAR-4 ovarian): 3.28 µM | TGI (OVCAR-4 ovarian): > 100 µM | GI50 (OVCAR-5 ovarian): > 100 µM | TGI (OVCAR-5 ovarian): > 100 µM | GI50 (OVCAR-8 ovarian): 3.93 µM | TGI (OVCAR-8 ovarian): > 100 µM | GI50 (PC-3 prostate): 2.97 µM | TGI (PC-3 prostate): > 100 µM | GI50 (RPMI-8226 leukemia): 2.91 µM | TGI (RPMI-8226 leukemia): 9.92 µM | GI50 (RXF 393 renal): 4.18 µM | TGI (RXF 393 renal): > 100 µM | GI50 (SF-268 CNS): 5.63 µM | TGI (SF-268 CNS): > 100 µM | GI50 (SF-295 CNS): 2.94 µM | TGI (SF-295 CNS): > 100 µM | GI50 (SK-MEL-2 melanoma): 2.59 µM | TGI (SK-MEL-2 melanoma): 8.32 µM | GI50 (SK-MEL-28 melanoma): 6.82 µM | TGI (SK-MEL-28 melanoma): > 100 µM | GI50 (SK-MEL-5 melanoma): 1.86 µM | TGI (SK-MEL-5 melanoma): 3.77 µM | GI50 (SK-OV-3 ovarian): 3.18 µM | TGI (SK-OV-3 ovarian): > 100 µM | GI50 (SN12C renal): 5.37 µM | TGI (SN12C renal): > 100 µM | GI50 (SNB-75 CNS): 4.57 µM | TGI (SNB-75 CNS): > 100 µM | GI50 (SR leukemia): 2.13 µM | TGI (SR leukemia): 7.22 µM | GI50 (SW-620 colon): 5.54 µM | TGI (SW-620 colon): > 100 µM | GI50 (T-47D breast): 1.54 µM | TGI (T-47D breast): 5.27 µM | GI50 (TK-10 renal): 5.32 µM | TGI (TK-10 renal): > 100 µM | GI50 (U251 CNS): 4.83 µM | TGI (U251 CNS): > 100 µM | GI50 (UACC-257 melanoma): 5.12 µM | TGI (UACC-257 melanoma): 39.3 µM | GI50 (UACC-62 melanoma): 4.65 µM | TGI (UACC-62 melanoma): > 100 µM | GI50 (UO-31 renal): 1.87 µM | TGI (UO-31 renal): > 100 µM
